Consider 17 compounds from patent US8841453B2, “Hybrid cholinesterase inhibitors” (priority 2011, dated 2014).

The term IC50 denotes the concentration at which inhibition is half-maximal. A lower IC50 goes with higher potency.

The target in one assay is BChE from the plasma (Homo sapiens (Human), UniProt P06276). The assay is described as follows: Ellman's method, butyrylcholinesterase inhibition. Type of assay: biochemical. The conditions noted are these: for IC50: human plasma BChE, Ellman's method, phosphate buffer pH 8.0 as reference; for Selectivity IC50(AChE)/IC50(BChE): ratio of IC50 for AChE to IC50 for BChE. As to the method: (§1) The biological activity of the compounds of general formula (I) towards the cholinesterase inhibition was evaluated using Ellman's method (Ellman, G. L.; Courtney, K. D.; Anders, B.; Featherstone, R. M. Biochem. Pharmacol. 1961, 7, 88-95).
BChE from the plasma, sequence (P06276 29-602): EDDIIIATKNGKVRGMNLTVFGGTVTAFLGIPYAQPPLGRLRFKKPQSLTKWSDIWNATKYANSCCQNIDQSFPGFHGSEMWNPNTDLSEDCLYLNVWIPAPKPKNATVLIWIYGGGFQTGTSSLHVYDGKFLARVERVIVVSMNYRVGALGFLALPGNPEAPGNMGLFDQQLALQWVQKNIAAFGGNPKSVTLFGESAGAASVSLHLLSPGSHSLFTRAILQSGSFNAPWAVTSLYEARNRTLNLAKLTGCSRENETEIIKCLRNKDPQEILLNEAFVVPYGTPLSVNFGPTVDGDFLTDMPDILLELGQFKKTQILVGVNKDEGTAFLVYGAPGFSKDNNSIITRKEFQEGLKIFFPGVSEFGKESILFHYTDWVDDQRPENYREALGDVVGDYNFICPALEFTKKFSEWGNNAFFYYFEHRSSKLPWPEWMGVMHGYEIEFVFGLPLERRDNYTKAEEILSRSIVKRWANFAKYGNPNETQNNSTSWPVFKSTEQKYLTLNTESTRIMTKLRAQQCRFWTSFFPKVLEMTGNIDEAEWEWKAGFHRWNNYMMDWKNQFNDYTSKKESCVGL
(§2) The inhibitor causes the enzyme activity drop which is dependent on the inhibitor concentration. […] The amount of the hydrolyzed ASCh/BSCh is measured indirectly, by quantification of the product of its reaction with DTNB (5,5′-dithio-bis-2-nitrobenzoic acid). Ellman's method relies therefore on the spectrophotometric quantification of product of the reaction between acylthiocholine and DTNB. IC50 value corresponds to the inhibitor concentration which causes the 50% decrease of the enzyme activity.
(§3) The enzymes are derived from human blood: AChE from the erythrocytes and BChE from the plasma. The phosphate buffer of pH 8.0 is used as the reference compound (lack of inhibition; enzyme activity—100%).

Assay [1] concerns the target AChE from the erythrocytes (Homo sapiens (Human), UniProt P22303). The assay can be described thus: Ellman's method, acetylcholinesterase inhibition. The conditions noted are these: human erythrocyte AChE, phosphate buffer pH 8.0 as reference. Type of assay: biochemical. As to the method: as §1, §2, §3
(In general: In Ellman's method for cholinesterases, released thiocholine reacts with DTNB.)

AChE from the erythrocytes, sequence (P22303 32-574 with tags or gaps limits assumed): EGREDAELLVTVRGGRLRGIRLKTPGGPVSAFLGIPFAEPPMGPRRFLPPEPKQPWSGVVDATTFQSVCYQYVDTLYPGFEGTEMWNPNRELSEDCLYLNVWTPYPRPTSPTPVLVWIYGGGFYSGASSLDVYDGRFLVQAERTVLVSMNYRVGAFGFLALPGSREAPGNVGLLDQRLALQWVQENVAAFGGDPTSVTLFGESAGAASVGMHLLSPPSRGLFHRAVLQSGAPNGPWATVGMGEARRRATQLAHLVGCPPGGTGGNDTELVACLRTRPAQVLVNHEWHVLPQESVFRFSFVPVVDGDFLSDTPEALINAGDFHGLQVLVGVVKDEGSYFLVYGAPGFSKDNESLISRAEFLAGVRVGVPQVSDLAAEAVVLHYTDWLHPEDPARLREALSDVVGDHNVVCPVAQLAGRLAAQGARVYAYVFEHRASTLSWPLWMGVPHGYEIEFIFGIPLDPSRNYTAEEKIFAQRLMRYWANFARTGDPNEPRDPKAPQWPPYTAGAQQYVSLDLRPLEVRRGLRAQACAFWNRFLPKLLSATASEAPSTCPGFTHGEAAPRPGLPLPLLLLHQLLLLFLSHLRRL

On to `CC(=O)O[C@@]12CCN(C(C)=O)[C@@H]1N(C(C)=O)c1ccc(OC(=O)NCCCCCCNc3c4c(nc5ccccc35)CCCC4)cc12` (stereo in doubt) [Example 7, 1,8-diacetyl-5-({[6-(1,2,3,4-tetrahydroacridin-9-ylamino)hexyl]carbamoyl}oxy)-2,3,8,8a-tetrahydropyrrolo[2,3-b]indol-3a(1H)-yl acetate], for which, at BChE from the plasma, the IC50 came out at 3.15 ± 0.83 nM and the “Selectivity IC50(AChE)/IC50(BChE)” value was determined as 11.7. Also, in assay [1], half-maximal inhibition (IC50) required 36.8 ± 2.87 nM.

For the compound `CC(=O)NCCc1c[nH]c2ccc(OC(=O)NCCCCCCCNc3c4c(nc5ccccc35)CCCC4)cc12` [Example 1, 3-[2-(acetylamino)ethyl]-1H-indol-5-yl[7-(1,2,3,4-tetrahydroacridin-9-ylamino)heptyl]carbamate], at BChE from the plasma, the IC50 was 0.25 ± 0.02 nM and the “Selectivity IC50(AChE)/IC50(BChE)” value was 135.1. In assay [1], this compound came in with a half-inhibitory concentration (IC50) of 33.8 ± 2.74 nM.

As for `CC(=O)NCCc1c[nH]c2ccc(OC(=O)NCCCCCCNc3c4c(nc5ccccc35)CCCC4)cc12` [Example 3, 3-[2-(acetylamino)ethyl]-1H-indol-5-yl[6-(1,2,3,4-tetrahydroacridin-9-ylamino)hexyl]carbamate], the IC50 at BChE from the plasma turned out to be 2.04 ± 0.22 nM; in assay [1], 178 ± 16.3 nM. The “Selectivity IC50(AChE)/IC50(BChE)” value at BChE from the plasma is 87.4.

As to `CC(=O)NCCc1c[nH]c2ccc(OC(=O)NCCCCCCCNc3c4c(nc5cc(Cl)ccc35)CCCC4)cc12` [Example 4, 3-[2-(acetylamino)ethyl]-1H-indol-5-yl{7-[(6-chloro-1,2,3,4-tetrahydroacridin-9-yl)amino]heptyl}carbamate], the “Selectivity IC50(AChE)/IC50(BChE)” value at BChE from the plasma came out at 20.3.

For the compound `CC(=O)NCCc1c[nH]c2ccc(OC(=O)NCCNc3c4c(nc5cc(Cl)ccc35)CCCC4)cc12` [Example 5, 3-[2-(acetylamino)ethyl]-1H-indol-5-yl{2-[(6-chloro-1,2,3,4-tetrahydroacridin-9-yl)amino]ethyl}carbamate], the “Selectivity IC50(AChE)/IC50(BChE)” value at BChE from the plasma is recorded as 0.6.

For the compound `CC(=O)NCCc1c[nH]c2ccc(OC(=O)NCCCNc3c4c(nc5ccccc35)CCCC4)cc12` [Example 8, 3-[2-(acetylamino)ethyl]-1H-indol-5-yl[3-(1,2,3,4-tetrahydroacridin-9-ylamino)propyl]carbamate], on BChE from the plasma, the 50% inhibitory concentration (IC50) amounted to 58.2 ± 9.62 nM and the “Selectivity IC50(AChE)/IC50(BChE)” value is given as 4.6. Also, the 50% inhibitory concentration (IC50) in assay [1] came out at 270 ± 19.4 nM.

`CC(=O)NCCc1c[nH]c2ccc(OC(=O)NCCCCNc3c4c(nc5ccccc35)CCCC4)cc12` [Example 9, 3-[2-(acetylamino)ethyl]-1H-indol-5-yl[4-(1,2,3,4-tetrahydroacridin-9-ylamino)butyl]carbamate]: on BChE from the plasma, 15.5 ± 2.84 nM corresponded to half-maximal inhibition (IC50) and the “Selectivity IC50(AChE)/IC50(BChE)” value is on record as 24.4. Also, in assay [1], the IC50 stood at 378 ± 42.4 nM.

Take `CC(=O)NCCc1c[nH]c2ccc(OC(=O)NCCCCCNc3c4c(nc5ccccc35)CCCC4)cc12` [Example 10, 3-[2-(acetylamino)ethyl]-1H-indol-5-yl[5-(1,2,3,4-tetrahydroacridin-9-ylamino)pentyl]carbamate]: on BChE from the plasma, the IC50 came to 2.07 ± 0.5 nM and the “Selectivity IC50(AChE)/IC50(BChE)” value worked out at 90.1. This compound also came in with a half-maximal inhibitory concentration (IC50) in assay [1] of 186 ± 11.2 nM.

As for `CC(=O)NCCc1c[nH]c2ccc(OC(=O)NCCCCCCCCNc3c4c(nc5ccccc35)CCCC4)cc12` [Example 11, 3-[2-(acetylamino)ethyl]-1H-indol-5-yl[8-(1,2,3,4-tetrahydroacridin-9-ylamino)octyl]carbamate], at BChE from the plasma, half-maximal inhibition (IC50) required 0.25 ± 0.03 nM and the “Selectivity IC50(AChE)/IC50(BChE)” value is listed as 18.4. The compound further registered an IC50 in assay [1] of 4.61 ± 0.32 nM.

On to `CC(=O)NCCc1c[nH]c2ccc(OC(=O)NCCCCCCCNc3c4c(nc5ccc(Cl)cc35)CCCC4)cc12` [Example 12, 3-[2-(acetylamino)ethyl]-1H-indol-5-yl{7-[(7-chloro-1,2,3,4-tetrahydroacridin-9-yl)amino]heptyl}carbamate], for which the “Selectivity IC50(AChE)/IC50(BChE)” value on BChE from the plasma was 45.3.

`CC(=O)NCCc1c[nH]c2ccc(OC(=O)NCCNc3c4c(nc5ccc(Cl)cc35)CCCC4)cc12` [Example 13, 3-[2-(acetylamino)ethyl]-1H-indol-5-yl{2-[(7-chloro-1,2,3,4-tetrahydroacridin-9-yl)amino]ethyl}carbamate]: the “Selectivity IC50(AChE)/IC50(BChE)” value on BChE from the plasma stood at 400.1.

With `CC(=O)NCCc1c[nH]c2ccc(OC(=O)NCCCCCCCCCCNc3c4c(nc5ccccc35)CCCC4)cc12` [Example 14, 3-[2-(acetylamino)ethyl]-1H-indol-5-yl[10-(1,2,3,4-tetrahydroacridin-9-ylamino)decyl]carbamate], at BChE from the plasma, half-maximal inhibition (IC50) required 0.28 ± 0.04 nM and the “Selectivity IC50(AChE)/IC50(BChE)” value is 4.2. In addition, in assay [1], the half-inhibitory concentration (IC50) turned out to be 1.18 ± 0.12 nM.

Turning to `CC(=O)NCCc1c[nH]c2ccc(OC(=O)NCCCCCCCCCCCCNc3c4c(nc5ccccc35)CCCC4)cc12` [Example 15, 3-[2-(acetylamino)ethyl]-1H-indol-5-yl[12-(1,2,3,4-tetrahydroacridin-9-ylamino)dodecyl]carbamate], on BChE from the plasma, 0.24 ± 0.08 nM corresponded to half-maximal inhibition (IC50) and the “Selectivity IC50(AChE)/IC50(BChE)” value amounted to 15.8. This compound also returned a concentration for half-maximal inhibition (IC50) in assay [1] of 3.8 ± 0.16 nM.

As to `CC(=O)NCCc1c[nH]c2ccc(OC(=O)NCCCCCCCCCCNc3c4c(nc5ccc(Cl)cc35)CCCC4)cc12` [Example 16, 3-[2-(acetylamino)ethyl]-1H-indol-5-yl{10-[(7-chloro-1,2,3,4-tetrahydroacridin-9-yl)amino]decyl}carbamate], at BChE from the plasma, the midpoint of inhibition, the IC50, lay at 1.64 ± 0.14 nM and the “Selectivity IC50(AChE)/IC50(BChE)” value stood at 0.9. The compound further yielded an IC50 in assay [1] of 1.43 ± 0.02 nM.

On to `CC(=O)NCCc1c[nH]c2ccc(OC(=O)NCCCCCCCCCCCCNc3c4c(nc5ccc(Cl)cc35)CCCC4)cc12` [Example 17, 3-[2-(acetylamino)ethyl]-1H-indol-5-yl{12-[(7-chloro-1,2,3,4-tetrahydroacridin-9-yl)amino]dodecyl}carbamate], for which the half-maximal inhibitory concentration (IC50) against BChE from the plasma was determined as 0.78 ± 0.16 nM; in assay [1] it was 7 ± 0.72 nM. At BChE from the plasma, the “Selectivity IC50(AChE)/IC50(BChE)” value was determined as 9.

As for `CC(=O)NCCc1c[nH]c2ccc(OC(=O)NCCCCCCCCCCNc3c4c(nc5cc(Cl)ccc35)CCCC4)cc12` [Example 18, 3-[2-(acetylamino)ethyl]-1H-indol-5-yl{10-[(6-chloro-1,2,3,4-tetrahydroacridin-9-yl)amino]decyl}carbamate], the “Selectivity IC50(AChE)/IC50(BChE)” value on BChE from the plasma came to 6.7.

As to `CC(=O)NCCc1c[nH]c2ccc(OC(=O)NCCCCCCCCCCCCNc3c4c(nc5cc(Cl)ccc35)CCCC4)cc12` [Example 19, 3-[2-(acetylamino)ethyl]-1H-indol-5-yl{12-[(6-chloro-1,2,3,4-tetrahydroacridin-9-yl)amino]dodecyl}carbamate], the “Selectivity IC50(AChE)/IC50(BChE)” value on BChE from the plasma worked out at 19.5.
